Source: US7618623B2, “Hybrid adeno-retroviral vector for the transfection of cells” (priority 2000, dated 2009)
Like-named read-outs stand apart in the source and are kept apart here.

Columns and labels:
HSG cells [1] = tested on: HSG cells
Source text: HSG cells were a generous gift from […]. M. Sato (Tokushima University, Japan) (Shirasuna et al., Cancer 48:745, 1981) and were maintained in vitro as previously described (He et al., Pflugers Arch., 36:416, 1990). For the experiments presented herein, HSG cells were dispersed from semi-confluent plates using a solution of Versene 1:5000 in Hanks' balanced salt solution without calcium and magnesium (BioFluids, Rockville Md.). Cells were then resuspended in fresh media consisting of a 1:1 mixture of Eagle's Minimal Essential Medium, (Dulbecco's Modification) and Ham's F-12 supplemented with 2 mM glutamine (BioFluids), 10% fetal calf serum (Hyclone, Logan, Utah), and 100 units/ml penicillin, 100 μg/ml streptomycin and 2.5 μg/ml fungizone (BioFluids).
Cells were grown in 96-well culture plates at a density of 1×10^4 cells/well. […] Six hours after infection, GCV (Cytovene®, Syntex Laboratories, Inc., Palo Alto Calif.) was added to the media at concentrations of 0.5, 5, or 50 μM. After incubation for different time points, the sensitivity of cells to the GCV prodrug was evaluated using two separate methods, assaying either with the tetrazolium salt of 3-(4,5-dimethylthiazol-2-yl)-2,5-diphenyl […] bromide (MTT assay, Chemicon International Inc., Temecula, Calif.) or direct cell counting after trypan blue staining (Bio-Whittaker, Walkersville, Md.).
To assess the ability of the HSV-tk transgene to function in HSG cells, cell viability was studied on tissue culture plastic using the MTT assay. HSG cells were infected with different vector MOIs, and thereafter incubated with several concentrations of GCV (Candotti et al., Cancer Gene Ther., 7:574, 2000).

HSG cells [2] = test: Trypan blue staining and manual cell counting on plastic; assay type: cell-based, human; conditions: cells infected with AdLTR.CMV-tk at a MOI of 10; 0.5, 5, 50 μM GCV
Source text: HSG cells were a generous gift from […].
To determine the surviving cell number under these growth conditions on a plastic substrate following GCV treatment, in separate experiments trypan blue staining was used as well as manual cell counting.

HSG cells [3] = test: Cell death on fibronectin-coated poly-L-lactic acid disks (crystal violet staining, cell count); assay type: cell-based, human; conditions: for cell death: cells infected with AdLTR.CMV-tk (MOI of 10)
Description: Two-dimensional films of poly-L-lactic acid (Boehringer Ingelheim Inc., Winchester, Va.) were produced by melt processing polymer pellets between sheets of aluminum foil using a Carver press at 350° F. to create disks with diameters of 20-25 mm. The disks were sterilized using y-irradiation for ˜150 min with a dose of 20,000 Gy.
Disks were gently placed in each well of a 6-well tissue culture plate (Becton Dickinson, Franklin Lakes, N.J.) and immersed in phosphate-buffered saline (PBS; GibcoBRL, Grand Island, N.Y.) for 18 hours with 5 μg/ml fibronectin at 37° C. (Aframian et al., Tissue Engin. 6:209, 2000). Thereafter, the coated disks were blocked for 1 hr with bovine serum albumin (Calbiochem-Novabiochem Corp., La Jolla, Calif.) at 37° C. and then gently washed twice with PBS (Aframian et al., op. cit.). Cell suspensions (1×10^5 cells; 2 ml/well) were added in complete culture medium and incubated at 37° C. for an additional 18 hours. Thereafter, the medium was discarded, and 10 MOI of virus diluted in PBS was added for an additional 6 hr. Next, GCV diluted in medium was added, and after an additional 125 hr the disks were washed twice in PBS, then stained with 0.2% crystal violet in 20% ethanol for 20 min (Aframian et al., op. cit). The disks were then rinsed twice with PBS and examined under a light microscope using a 10× objective. Three randomly selected photomicrographs were obtained from each specimen using 200 ASA color slide film (Elite chrome, Kodak, Rochester, N.Y.). The slides were scanned to convert them to digital images and, using Adobe Photoshop®, three 200 μm^2 regions were randomly chosen from each field, and cell number was determined visually.
An artificial salivary gland device will have cells grown as a monolayer on a fibronectin-coated poly-L-lactic acid substratum (Aframian et al., Tissue Engin. 6:209, 2000), rather than on tissue culture plastic. Therefore, the ability of GCV to elicit HSG cell death when the cells were attached to poly-L-lactic acid disks pre-coated with 5 μg/ml of human fibronectin was determined. […] The GCV effect ranged from 40% cell death at 0.5 μM GCV to 95% cell death when the GCV concentration was 50 μM.

Nc1nc(O)c2ncn(COC(CO)CO)c2n1 [GCV, ganciclovir]
effect on HSG cell growth and viability (HSG cells [1]; GCV doses up to 50 μM, absence of AdLTR.CMV-tk infection): does not affect | effect of GCV on viability (HSG cells [1]; cells infected with AdLTR.CMV-tk at a MOI of 1): without effect | reduced viability compared to no GCV treatment (HSG cells [1]; cells infected with AdLTR.CMV-tk at a MOI of 10, all prodrug concentrations (0.5, 5, 50 μM)): > 50% | effect of GCV on viability (HSG cells [1]; uninfected cells, 0.5, 5, 50 μM GCV): without effect | decrease in number of viable cells compared with cells infected with 10 MOI alone (HSG cells [2]): up to 3 fold | appearance of cell monolayers (HSG cells [3]; 50 μM GCV alone, no infection): appeared normal | cells remaining on the disk (HSG cells [3]; AdLTR.CMV-tk at a MOI of 10 followed by 50 μM of GCV): loss of almost all of the cells | cell death (HSG cells [3]; 0.5 μM GCV): 40% | cell death (HSG cells [3]; 50 μM GCV): 95%
